How the values were obtained:
[1] = DRUGMATRIX: GABAA, Flunitrazepam, Central radioligand binding (ligand: [3H] Flunitrazepam); format: cell membranes, Rattus norvegicus, Wistar, Brain, Membrane; settings: Not Active = under 50% inhibition at 10 µM
Cytochrome P450 3A4 = Cytochrome P450 3A4 (Homo sapiens, UniProt P08684); note: in other assays of this panel Not Active means under 50% inhibition at 10 µM
Cytochrome P450 2C9 = Cytochrome P450 2C9 (Homo sapiens, UniProt P11712); note: in other assays of this panel Not Active means under 50% inhibition at 10 µM
Cytochrome P450 2C9, sequence (P11712 whole entry): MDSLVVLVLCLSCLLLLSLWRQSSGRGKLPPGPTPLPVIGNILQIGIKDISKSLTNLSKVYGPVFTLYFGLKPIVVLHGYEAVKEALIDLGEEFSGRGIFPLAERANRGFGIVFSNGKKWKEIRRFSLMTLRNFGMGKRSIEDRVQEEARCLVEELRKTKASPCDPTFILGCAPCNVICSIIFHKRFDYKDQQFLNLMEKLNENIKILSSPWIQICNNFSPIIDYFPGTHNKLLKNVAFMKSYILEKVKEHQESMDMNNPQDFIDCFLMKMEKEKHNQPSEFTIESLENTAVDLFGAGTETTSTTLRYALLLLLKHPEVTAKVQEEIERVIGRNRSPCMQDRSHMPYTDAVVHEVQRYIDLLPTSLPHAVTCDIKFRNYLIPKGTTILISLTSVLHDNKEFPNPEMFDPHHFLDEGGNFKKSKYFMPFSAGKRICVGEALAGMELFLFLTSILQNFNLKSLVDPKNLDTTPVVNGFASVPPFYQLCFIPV

Cytochrome P450 2D6 = Cytochrome P450 2D6 (Homo sapiens, UniProt P10635); note: in other assays of this panel Not Active means under 50% inhibition at 10 µM
Cytochrome P450 2D6, sequence (P10635 whole entry): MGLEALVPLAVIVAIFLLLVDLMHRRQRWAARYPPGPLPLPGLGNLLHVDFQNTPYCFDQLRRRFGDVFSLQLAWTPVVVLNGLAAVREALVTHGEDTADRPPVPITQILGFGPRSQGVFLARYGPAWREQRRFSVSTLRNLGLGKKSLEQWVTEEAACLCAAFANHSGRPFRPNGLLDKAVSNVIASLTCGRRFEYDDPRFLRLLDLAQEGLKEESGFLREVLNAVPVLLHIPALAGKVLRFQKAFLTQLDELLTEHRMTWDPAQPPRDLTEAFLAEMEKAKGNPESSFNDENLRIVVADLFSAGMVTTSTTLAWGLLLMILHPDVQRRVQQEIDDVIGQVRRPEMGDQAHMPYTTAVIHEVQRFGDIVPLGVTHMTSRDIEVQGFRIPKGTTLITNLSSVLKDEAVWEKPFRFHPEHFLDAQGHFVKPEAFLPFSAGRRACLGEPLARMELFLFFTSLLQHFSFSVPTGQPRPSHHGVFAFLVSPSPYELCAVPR

Androgen receptor = target: T1, Androgen receptor (Rattus norvegicus, UniProt P15207); note: in other assays of this panel Not Active means under 50% inhibition at 10 µM
T1 sequence (P15207 whole entry): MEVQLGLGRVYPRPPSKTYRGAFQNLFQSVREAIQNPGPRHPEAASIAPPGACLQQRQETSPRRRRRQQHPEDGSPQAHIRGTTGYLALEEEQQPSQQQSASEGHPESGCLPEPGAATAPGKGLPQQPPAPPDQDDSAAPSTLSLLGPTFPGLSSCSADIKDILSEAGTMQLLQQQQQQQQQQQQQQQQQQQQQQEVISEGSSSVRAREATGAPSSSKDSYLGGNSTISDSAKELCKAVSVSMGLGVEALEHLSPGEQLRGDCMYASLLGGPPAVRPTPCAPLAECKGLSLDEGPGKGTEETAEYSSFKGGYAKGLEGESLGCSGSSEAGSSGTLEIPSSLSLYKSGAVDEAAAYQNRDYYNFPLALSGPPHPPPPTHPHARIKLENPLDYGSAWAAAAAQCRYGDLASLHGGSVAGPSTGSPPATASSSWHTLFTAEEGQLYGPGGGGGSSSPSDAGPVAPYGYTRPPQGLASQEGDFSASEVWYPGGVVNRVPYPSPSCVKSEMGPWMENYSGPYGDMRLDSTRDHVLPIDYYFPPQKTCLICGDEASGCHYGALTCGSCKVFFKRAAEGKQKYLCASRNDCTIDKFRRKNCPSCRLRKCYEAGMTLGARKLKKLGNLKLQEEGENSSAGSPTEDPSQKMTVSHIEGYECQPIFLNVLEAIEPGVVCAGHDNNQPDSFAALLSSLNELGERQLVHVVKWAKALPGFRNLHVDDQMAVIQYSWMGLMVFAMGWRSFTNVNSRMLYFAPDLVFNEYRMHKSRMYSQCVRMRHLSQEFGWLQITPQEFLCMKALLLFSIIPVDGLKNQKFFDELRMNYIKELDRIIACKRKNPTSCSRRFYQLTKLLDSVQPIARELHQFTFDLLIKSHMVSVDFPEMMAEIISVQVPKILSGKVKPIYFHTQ

[2] = DRUGMATRIX: Calcium Channel Type L, Benzothiazepine radioligand binding (ligand: [3H] Diltiazem); format: cell membranes, Rattus norvegicus, Wistar, Brain, Membrane; settings: Not Active = under 50% inhibition at 10 µM
[3] = target: Voltage-gated inwardly rectifying potassium channel KCNH2 (Homo sapiens, UniProt Q12809); note: in other assays of this panel Not Active means under 50% inhibition at 10 µM
Voltage-gated inwardly rectifying potassium channel KCNH2, sequence (Q12809 whole entry): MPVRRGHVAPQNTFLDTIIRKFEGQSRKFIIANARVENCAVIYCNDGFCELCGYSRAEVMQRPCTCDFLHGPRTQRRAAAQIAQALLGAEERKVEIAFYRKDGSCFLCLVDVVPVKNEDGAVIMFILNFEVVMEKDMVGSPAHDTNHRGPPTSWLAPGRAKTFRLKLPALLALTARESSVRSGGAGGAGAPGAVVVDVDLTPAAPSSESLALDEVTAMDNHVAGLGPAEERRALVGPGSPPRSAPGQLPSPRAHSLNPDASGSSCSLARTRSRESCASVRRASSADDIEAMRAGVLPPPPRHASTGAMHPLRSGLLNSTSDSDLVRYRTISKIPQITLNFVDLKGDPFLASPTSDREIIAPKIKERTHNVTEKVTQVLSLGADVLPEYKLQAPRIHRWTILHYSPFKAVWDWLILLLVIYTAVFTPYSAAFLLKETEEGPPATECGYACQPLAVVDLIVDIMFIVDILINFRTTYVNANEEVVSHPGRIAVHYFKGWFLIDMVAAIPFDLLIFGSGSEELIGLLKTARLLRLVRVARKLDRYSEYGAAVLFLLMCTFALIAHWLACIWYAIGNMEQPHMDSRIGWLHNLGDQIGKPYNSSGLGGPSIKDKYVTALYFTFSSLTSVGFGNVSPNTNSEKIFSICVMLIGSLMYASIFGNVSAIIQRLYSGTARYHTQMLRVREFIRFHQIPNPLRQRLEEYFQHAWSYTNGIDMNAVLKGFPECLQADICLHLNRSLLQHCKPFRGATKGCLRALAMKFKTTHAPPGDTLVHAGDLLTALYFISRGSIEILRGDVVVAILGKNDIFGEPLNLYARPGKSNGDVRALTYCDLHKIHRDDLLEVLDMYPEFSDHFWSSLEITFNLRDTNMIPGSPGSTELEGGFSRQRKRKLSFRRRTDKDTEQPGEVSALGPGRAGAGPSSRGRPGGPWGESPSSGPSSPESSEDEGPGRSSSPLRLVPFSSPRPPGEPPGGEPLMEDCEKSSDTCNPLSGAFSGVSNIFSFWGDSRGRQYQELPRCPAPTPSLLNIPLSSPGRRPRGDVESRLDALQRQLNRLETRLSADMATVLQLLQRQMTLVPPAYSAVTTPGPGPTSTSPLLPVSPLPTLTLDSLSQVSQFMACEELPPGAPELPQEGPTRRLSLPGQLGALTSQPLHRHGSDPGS

Cytochrome P450 2C19 = Cytochrome P450 2C19 (Homo sapiens, UniProt P33261); note: in other assays of this panel Not Active means under 50% inhibition at 10 µM
Cytochrome P450 2C19, sequence (P33261 whole entry): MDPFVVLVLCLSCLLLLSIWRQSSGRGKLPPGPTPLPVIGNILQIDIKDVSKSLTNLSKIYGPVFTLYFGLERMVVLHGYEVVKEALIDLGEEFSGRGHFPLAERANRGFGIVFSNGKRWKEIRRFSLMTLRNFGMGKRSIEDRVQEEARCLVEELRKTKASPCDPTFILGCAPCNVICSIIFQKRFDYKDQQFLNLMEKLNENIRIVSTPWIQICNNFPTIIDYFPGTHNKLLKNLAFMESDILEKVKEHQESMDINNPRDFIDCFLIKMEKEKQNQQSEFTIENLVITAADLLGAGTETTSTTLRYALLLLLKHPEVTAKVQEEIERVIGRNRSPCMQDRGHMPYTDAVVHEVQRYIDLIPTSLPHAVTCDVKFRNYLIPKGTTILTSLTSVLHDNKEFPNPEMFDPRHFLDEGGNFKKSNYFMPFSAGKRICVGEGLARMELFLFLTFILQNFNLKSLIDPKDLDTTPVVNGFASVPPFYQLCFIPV

Glucocorticoid receptor = target: T2, Glucocorticoid receptor (Homo sapiens, UniProt P04150); test: biochemical; note: in other assays of this panel Not Active means under 50% inhibition at 10 µM
T2 sequence (P04150 whole entry): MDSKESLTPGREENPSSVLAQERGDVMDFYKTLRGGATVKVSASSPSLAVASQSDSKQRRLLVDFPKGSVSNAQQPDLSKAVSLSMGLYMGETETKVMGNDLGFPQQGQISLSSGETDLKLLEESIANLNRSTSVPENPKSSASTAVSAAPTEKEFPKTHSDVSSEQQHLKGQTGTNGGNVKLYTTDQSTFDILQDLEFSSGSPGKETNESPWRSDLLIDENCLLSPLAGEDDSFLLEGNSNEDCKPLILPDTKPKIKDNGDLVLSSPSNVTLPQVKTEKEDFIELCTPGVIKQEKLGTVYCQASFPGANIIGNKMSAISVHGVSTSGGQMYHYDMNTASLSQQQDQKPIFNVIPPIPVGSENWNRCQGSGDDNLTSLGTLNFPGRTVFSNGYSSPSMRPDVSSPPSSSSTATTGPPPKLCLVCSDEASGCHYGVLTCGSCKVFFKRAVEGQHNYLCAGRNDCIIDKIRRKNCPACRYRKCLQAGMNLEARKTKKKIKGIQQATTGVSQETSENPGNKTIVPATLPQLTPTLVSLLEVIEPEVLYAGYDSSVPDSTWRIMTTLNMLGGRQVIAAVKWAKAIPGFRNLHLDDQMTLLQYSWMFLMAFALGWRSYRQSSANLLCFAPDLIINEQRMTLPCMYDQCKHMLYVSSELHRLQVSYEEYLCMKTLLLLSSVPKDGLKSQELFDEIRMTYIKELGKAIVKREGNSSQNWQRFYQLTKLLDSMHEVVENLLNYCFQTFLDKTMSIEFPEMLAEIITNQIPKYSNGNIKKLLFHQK

Cytochrome P450 3A4, sequence (P08684 whole entry): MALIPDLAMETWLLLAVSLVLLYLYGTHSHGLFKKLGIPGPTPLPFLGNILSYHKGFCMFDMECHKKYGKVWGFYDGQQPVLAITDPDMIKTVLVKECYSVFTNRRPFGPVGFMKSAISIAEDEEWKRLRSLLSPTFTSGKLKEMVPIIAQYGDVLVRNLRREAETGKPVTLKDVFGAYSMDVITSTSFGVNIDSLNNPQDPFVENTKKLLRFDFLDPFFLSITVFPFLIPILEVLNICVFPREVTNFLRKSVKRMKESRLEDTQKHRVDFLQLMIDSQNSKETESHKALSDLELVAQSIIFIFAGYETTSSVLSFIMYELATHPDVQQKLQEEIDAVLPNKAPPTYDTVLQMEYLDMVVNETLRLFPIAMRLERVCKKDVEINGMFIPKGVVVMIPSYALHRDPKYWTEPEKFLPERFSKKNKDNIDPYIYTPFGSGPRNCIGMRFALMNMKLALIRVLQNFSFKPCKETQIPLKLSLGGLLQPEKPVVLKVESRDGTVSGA

| Molecule | IC50 [1] | Ki [1] | IC50 (Androgen receptor) | IC50 [2] | Ki [2] | further results |
| --- | --- | --- | --- | --- | --- | --- |
| COc1cc(N)nc2[nH]c(-c3ccc(F)cc3)c(-c3ccncc3)c12 | Not Active | Not Active | Not Active | Not Active | Not Active | IC50 (Cytochrome P450 3A4): 1 µM; IC50 (Cytochrome P450 2C9): 1 µM; IC50 (Cytochrome P450 2D6): 0.2 µM |
| CNS(=O)(=O)Cc1ccc2[nH]cc(CCN(C)C)c2c1 | Not Active | Not Active | – | Not Active | Not Active | – |
| CCCc1nn(C)c2c(=O)[nH]c(-c3cc(S(=O)(=O)N4CCN(C)CC4)ccc3OCC)nc12 | Not Active | Not Active | – | Not Active | Not Active | – |
| COc1ccc(/C=C/C(=O)Nc2ccccc2C(=O)O)cc1OC | Not Active | Not Active | Not Active | Not Active | Not Active | – |
| CCOC(N)=O | Not Active | Not Active | – | Not Active | Not Active | – |
| CC1=C(CC(=O)O)c2cc(F)ccc2/C1=C\c1ccc(S(C)(=O)=O)cc1 [EXISULIND] | Not Active | Not Active | Not Active | Not Active | Not Active | – |
| CC(C)OC(=O)C(C)(C)Oc1ccc(C(=O)c2ccc(Cl)cc2)cc1 [FENOFIBRATE] | – | – | Not Active | – | – | – |
| OCCN1CCN(CCCN2c3ccccc3Sc3ccc(C(F)(F)F)cc32)CC1 [FLUPHENAZINE] | – | – | – | – | – | IC50 [3]: 5.71 µM; Ki [3]: 4.67 µM |
| Nc1nc2c(c(=O)[nH]1)N(C=O)C(CNc1ccc(C(=O)N[C@@H](CCC(=O)O)C(=O)O)cc1)CN2 (stereo partly specified) [LEUCOVORIN] | Not Active | Not Active | Not Active | Not Active | Not Active | – |
| C[C@@H](O)[C@H]1C(=O)N2C(C(=O)O)=C(S[C@@H]3CN[C@H](C(=O)N(C)C)C3)[C@H](C)[C@H]12 [MEROPENEM] | Not Active | Not Active | – | Not Active | Not Active | – |
| O=P(O)(O)C(O)(Cc1cccnc1)P(=O)(O)O [RISEDRONIC ACID] | Not Active | Not Active | – | Not Active | Not Active | – |
| CN(CCOc1ccc(CC2SC(=O)NC2=O)cc1)c1ccccn1 (stereo unspecified) [ROSIGLITAZONE] | Not Active | Not Active | – | Not Active | Not Active | – |
| C=C(C)[C@H]1Cc2c(ccc3c2O[C@@H]2COc4cc(OC)c(OC)cc4[C@@H]2C3=O)O1 [ROTENONE] | Not Active | Not Active | Not Active | Not Active | Not Active | IC50 (Cytochrome P450 2C19): 3.65 µM |
| C#CCN(C)[C@H](C)Cc1ccccc1 [SELEGILINE] | Not Active | Not Active | – | Not Active | Not Active | – |
| CO[C@H]1C[C@@H]2CC[C@@H](C)[C@@](O)(O2)C(=O)C(=O)N2CCCC[C@H]2C(=O)O[C@H]([C@H](C)C[C@@H]2CC[C@@H](O)[C@H](OC)C2)CC(=O)[C@H](C)/C=C(\C)[C@@H](O)[C@@H](OC)C(=O)[C@H](C)C[C@H](C)/C=C/C=C/C=C/1C [SIROLIMUS] | Not Active | Not Active | Not Active | Not Active | Not Active | IC50 (Cytochrome P450 3A4): 2 µM; IC50 (Cytochrome P450 2C9): 2 µM; IC50 (Cytochrome P450 2C19): 4 µM |
| CN[C@@H]1[C@H](O)[C@H](NC)[C@H]2O[C@@]3(O)C(=O)C[C@@H](C)O[C@H]3O[C@@H]2[C@H]1O [SPECTINOMYCIN] | Not Active | Not Active | Not Active | Not Active | Not Active | – |

| Molecule | IC50 [1] | Ki [1] | IC50 (Androgen receptor) | IC50 [2] | Ki [2] | further results |
| --- | --- | --- | --- | --- | --- | --- |
| Nc1ccc(S(=O)(=O)Nc2ncccn2)cc1 [SULFADIAZINE] | Not Active | Not Active | – | Not Active | Not Active | – |
| COc1ncnc(NS(=O)(=O)c2ccc(N)cc2)c1OC [SULFADOXINE] | Not Active | Not Active | – | Not Active | Not Active | – |
| Nc1ccc(S(=O)(=O)Nc2nccs2)cc1 [SULFATHIAZOLE] | Not Active | Not Active | – | Not Active | Not Active | – |
| C[C@]12CC[C@H]3[C@@H](CCC4=CC(=O)CC[C@@]43C)[C@@H]1CC[C@@H]2O [TESTOSTERONE] | Not Active | Not Active | – | Not Active | Not Active | IC50 (Glucocorticoid receptor): 3.21 µM; Ki (Glucocorticoid receptor): 1.46 µM |
| CC(C)(C)NC[C@H](O)COc1nsnc1N1CCOCC1 [TIMOLOL] | Not Active | Not Active | – | Not Active | Not Active | – |
| CCS(=O)(=O)CCn1c([N+](=O)[O-])cnc1C [TINIDAZOLE] | Not Active | Not Active | – | Not Active | Not Active | – |
| C[C@@H]1C[C@H]2[C@@H]3CCC4=CC(=O)C=C[C@]4(C)C3=CC[C@]2(C)[C@H]1C(=O)CN1CCN(c2cc(N3CCCC3)nc(N3CCCC3)n2)CC1 [TIRILAZAD] | Not Active | Not Active | Not Active | – | – | IC50 ([2]; read-out: IC50): 2.69 µM; Ki ([2]; read-out: Ki): 2.4 µM |
| NC[C@H]1O[C@H](O[C@H]2[C@H](O)[C@@H](O[C@H]3O[C@H](CO)[C@@H](O)[C@H](N)[C@H]3O)[C@H](N)C[C@@H]2N)[C@H](N)C[C@@H]1O [TOBRAMYCIN] | Not Active | Not Active | – | Not Active | Not Active | – |
| O=C(O)C(Cl)(Cl)Cl [TRICHLOROACETIC ACID] | Not Active | Not Active | – | Not Active | Not Active | – |
| COc1ccc(CN2CCNCC2)c(OC)c1OC [TRIMETAZIDINE] | Not Active | Not Active | – | Not Active | Not Active | – |
| CC(=O)O[C@H]1C[C@@H]2CC[C@@H]3[C@H](CC[C@@]4(C)[C@H]3C[C@H]([N+]3(C)CCCCC3)[C@@H]4OC(C)=O)[C@@]2(C)C[C@@H]1N1CCCCC1.[Br-] [VECURONIUM BROMIDE] | Not Active | Not Active | – | Not Active | Not Active | – |
| COc1cc(C(=O)NS(=O)(=O)c2ccccc2C)ccc1Cc1cn(C)c2ccc(NC(=O)OC3CCCC3)cc12 [ZAFIRLUKAST] | Not Active | Not Active | – | Not Active | Not Active | IC50 (Cytochrome P450 2C9): 2.26 µM |
| Cc1cn([C@H]2C[C@H](N=[N+]=[N-])[C@@H](CO)O2)c(=O)[nH]c1=O [ZIDOVUDINE] | Not Active | Not Active | – | Not Active | Not Active | – |
| STANNOUS FLUORIDE | Not Active | Not Active | Not Active | Not Active | Not Active | Ki (Androgen receptor): Not Active |
| THIMEROSAL | Not Active | Not Active | Not Active | Not Active | Not Active | Ki (Androgen receptor): Not Active |

From ChEMBL document CHEMBL1909046, “DrugMatrix in vitro pharmacology data”
